Laboratory results from patent US4446319A, “Aminocyclitols and their production” (Takeda Chemical Industries, Ltd., priority 1981, dated 1984).

Legend:
α-glucoside hydrolase = conditions: reported in Journal of Antibiotics 33, 1575 to 1576 (1980); cited from earlier work
[1] = biological target: T1, α-glucosidase (yeast, type I) (Saccharomyces cerevisiae, UniProt P53341); experiment: glucosidase inhibitory activity, p-nitrophenyl α-D-glucopyranoside as substrate; assay type: biochemical; conditions: substrate 0.01 M p-nitrophenyl α-D-glucopyranoside, pH 6.8, 37° C., read-out: IC50 (concentration of 50% inhibition)
T1 construct: purchased Sigma Chemical Co; host or cells: yeast
Procedure: (§1) The inhibitory activities against α-glucosidase (yeast, type I, produced by Sigman Chemical Co.) and glucoamylase (Rhizopus mold, produced by Sigma Chemical Co.) when p-nitrophenyl α-D-glucopyranoside is used as a substrate, are determined by adding to 0.25 ml of 0.02 M phosphate buffer (pH 6.8) containing 0.005 mg/ml of α-glucosidase 0.5 ml of a solution of valiolamine in the same buffer and 0.25 ml of a solution of 0.01 M p-nitrophenyl α-D-glucopyranoside in the same buffer, allowing the reaction to proceed at 37° C. for 15 minutes, then adding 3 ml of 0.1 M aqueous sodium carbonate solution to terminate the reaction, and measuring the absorbance of the reaction solution at 400 nm. The 50% inhibition concentration is calculated from the inhibition rates (%) which are determined with inhibitory substance samples of three to five different concentrations.

[2] = biological target: T1, α-glucosidase (yeast, type I); experiment: glucosidase inhibitory activity, maltose as substrate; assay type: biochemical; conditions: substrate 0.05 M maltose, pH 6.8, 37° C., read-out: IC50 (concentration of 50% inhibition)
Procedure: (§2) The inhibitory activities of valiolamine against α-glucosidase (yeast, type I, produced by Sigma Chemical Co., U.S.A.) as well as maltase and saccharase prepared from porcine intestinal mucosa (prepared in accordance with the procedure as described by B. Borgstrom and A. Dahlqvist in Acta Chem. Scand.; 12, 1997-2006, (1958)), when maltose and sucrose are used as a substrate, are determined by adding to 0.25 ml of a solution of an enzyme prepared by diluting suitably with 0.02 M phosphate buffer (pH 6.8) 0.5 ml of a solution of valiolamine to be tested in the same buffer and 0.25 ml of 0.05 M maltose or 0.05 M sucrose as the substrate in the same buffer allowing the mixture to react at 37° C. for 10 minutes, then adding 3 ml of Glucose B-Test Reagent (a glucose oxidase reagent for measurement of glucose, produced by Wako Pure Chemical Co., Japan), further warming the mixture at 37° C. for 20 minutes and measuring the absorbance of the reaction solution at 505 nm. […]

[3] = biological target: maltase (porcine, intestinal mucosa); experiment: maltase inhibitory activity, maltose as substrate; assay type: biochemical; conditions: substrate 0.05 M maltose, pH 6.8, 37° C., read-out: IC50 (concentration of 50% inhibition)
Procedure: as §2

[4] = biological target: T2, glucoamylase (Rhizopus mold) (Rhizopus oryzae, UniProt P07683); experiment: glucoamylase inhibitory activity, p-nitrophenyl α-D-glucopyranoside as substrate; assay type: biochemical; conditions: substrate 0.01 M p-nitrophenyl α-D-glucopyranoside, pH 6.8, 37° C., read-out: IC50 (concentration of 50% inhibition)
T2 construct: purchased Sigma Chemical Co; host or cells: Rhizopus mold
T2 sequence (P07683 26-604): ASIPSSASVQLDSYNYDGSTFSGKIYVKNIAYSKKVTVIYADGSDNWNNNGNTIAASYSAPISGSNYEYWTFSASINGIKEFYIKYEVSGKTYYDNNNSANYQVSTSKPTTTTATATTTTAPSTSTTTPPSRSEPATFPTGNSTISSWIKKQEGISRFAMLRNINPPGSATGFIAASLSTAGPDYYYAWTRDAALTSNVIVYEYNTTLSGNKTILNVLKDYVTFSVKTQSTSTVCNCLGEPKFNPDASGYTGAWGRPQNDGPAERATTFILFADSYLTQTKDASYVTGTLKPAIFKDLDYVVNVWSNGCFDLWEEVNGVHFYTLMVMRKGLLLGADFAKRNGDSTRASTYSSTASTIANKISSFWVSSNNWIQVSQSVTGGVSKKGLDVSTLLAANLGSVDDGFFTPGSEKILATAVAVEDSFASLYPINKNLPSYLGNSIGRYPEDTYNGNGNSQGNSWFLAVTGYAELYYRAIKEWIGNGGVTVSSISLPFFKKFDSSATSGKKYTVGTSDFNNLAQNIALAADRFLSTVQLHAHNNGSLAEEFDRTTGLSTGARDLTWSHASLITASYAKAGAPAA
Procedure: as §1

toxicity (LD50) in rats = conditions: rat, in vivo

T1 sequence (P53341 whole entry): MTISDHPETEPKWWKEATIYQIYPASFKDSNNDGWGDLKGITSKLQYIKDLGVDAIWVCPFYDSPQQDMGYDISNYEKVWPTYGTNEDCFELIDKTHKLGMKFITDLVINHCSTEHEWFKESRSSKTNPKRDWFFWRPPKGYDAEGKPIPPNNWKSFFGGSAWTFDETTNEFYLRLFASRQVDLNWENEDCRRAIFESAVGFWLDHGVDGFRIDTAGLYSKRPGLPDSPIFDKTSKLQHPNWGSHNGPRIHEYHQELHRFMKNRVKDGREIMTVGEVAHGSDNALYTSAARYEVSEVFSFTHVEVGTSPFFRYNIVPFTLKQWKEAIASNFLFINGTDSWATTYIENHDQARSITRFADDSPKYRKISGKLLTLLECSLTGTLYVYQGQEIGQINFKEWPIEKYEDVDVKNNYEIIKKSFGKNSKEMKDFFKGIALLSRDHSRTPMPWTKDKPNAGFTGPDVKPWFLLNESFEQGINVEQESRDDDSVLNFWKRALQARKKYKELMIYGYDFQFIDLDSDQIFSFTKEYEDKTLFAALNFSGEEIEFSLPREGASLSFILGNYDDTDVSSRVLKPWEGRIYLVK

SMILES	action on α-glucoside hydrolase (α-glucoside hydrolase)	IC50 [1] [µM]	IC50 [2] [µM]	IC50 [3] [µM]	IC50 [4] [µM]	LD50 (toxicity (LD50) in rats) [mg/kg]
N[C@H]1C=C(CO)[C@@H](O)[C@H](O)[C@H]1O [valienamine]	possesses an action of suppressing the function of α-glucoside hydrolase					
N[C@H]1C[C@](O)(CO)[C@@H](O)[C@H](O)[C@H]1O [valiolamine, 1L(1S)-(1(OH),2,4,5/1,3)-5-amino-1-hydroxymethyl-1,2,3,4-cyclohexanetetrol]		1100	190	2.2	600	≥ 500
